Columns and labels:
[1] = system: NK-YS (IL-2 2.5 ng/mL); assay: drug sensitivity score (DSS) (DSS units); higher = more sensitive; extreme values may be limits of the assay; details: 72 h
[2] = system: normal primary NK cells, pool 2 (3 donors) (IL-2 2.5 ng/mL); assay: as above; details: 72 h
[3] = system: NK-92 (IL-2 2.5 ng/mL); assay: as above; details: 72 h
[4] = system: KAI3 (IL-2 2.5 ng/mL); assay: as above; details: 72 h
[5] = system: YT (IL-2 2.5 ng/mL); assay: as above; details: 72 h
[6] = system: normal primary NK cells, pool 1 (3 donors), resting (IL-2 0 ng/mL); assay: as above; details: 72 h
[7] = system: NKL (IL-2 2.5 ng/mL); assay: as above; details: 72 h
[8] = system: normal primary NK cells, pool 1 (3 donors) (IL-2 2.5 ng/mL); assay: as above; details: 72 h
[9] = system: normal primary NK cells, pool 3 (3 donors) (IL-2 2.5 ng/mL); assay: as above; details: 72 h
[10] = system: IMC-1 (IL-2 20 ng/mL); assay: as above; details: 72 h
[11] = system: SNK-6 (IL-2 2.5 ng/mL); assay: as above; details: 72 h
[12] = system: KHYG-1 (IL-2 2.5 ng/mL); assay: as above; details: 72 h
[13] = system: DERL-7 (IL-2 2.5 ng/mL); assay: as above; details: 72 h
[14] = system: normal NK cells expanded with K562-aAPC; assay: as above; details: 72 h; IL-2 2.5 ng/mL
Protocol: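 Drug sensitivity and resistance testing on K562-aAPC-expanded normal NK cells: 5 concentrations (10-fold steps over a 10,000-fold range), 72 h at 37 °C, viability by CellTiter-Glo normalised to DMSO and benzethonium chloride controls; DSS from the fitted curve.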

[15] = system: NK-YS (IL-2 2.5 ng/mL); assay: percent inhibition of viability; higher = more inhibition; details: 72 h
[16] = system: normal primary NK cells, pool 2 (3 donors) (IL-2 2.5 ng/mL); assay: as above; details: 72 h
[17] = system: NK-92 (IL-2 2.5 ng/mL); assay: as above; details: 72 h
[18] = system: KAI3 (IL-2 2.5 ng/mL); assay: as above; details: 72 h
[19] = system: YT (IL-2 2.5 ng/mL); assay: as above; details: 72 h
[20] = system: normal primary NK cells, pool 1 (3 donors), resting (IL-2 0 ng/mL); assay: as above; details: 72 h
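Wherever percent inhibition of viability is given: normalised to DMSO-only wells as negative and benzethonium chloride as positive control.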

CCCCCCCCc1ccc(CCC(N)(CO)CO)cc1 [Fingolimod] (max concentration tested 10000 nM)
Details | drug sensitivity score
[1] | 7.3
[2] | 8.2
[3] | 5.44
[4] | 8.95
[5] | 6.91
[6] | 5.33
[7] | 9.92
[8] | 6.91
[9] | 5.22
[10] | 7.23
[11] | 7.85
[12] | 7.28
[13] | 7.91
[14] | 8.27

percent inhibition of viability [%]
Details | [15] | [16] | [17] | [18] | [19] | [20]
1 nM | -1.37 | -5.21 | 1.29 | -5.76 | 1.77 | 0.28
10 nM | 0.63 | -6.36 | 3.97 | 2.36 | 4.72 | -1.75
100 nM | 1.86 | 4.8 | 7.28 | -1.55 | 1.22 | -1.3
1000 nM | 10.4 | 16 | -5.13 | 21.5 | 8.33 | –
10000 nM | 102 | 101 | 103 | 101 | 101 | –

Source: the supplement of paper PMC5908809
